The source of these data is patent publication US7413851B2, “Nucleophosmin directed diagnostics and therapeutics for multidrug resistant neoplastic disease” (Aurelium Biopharma, Inc., priority 2002, dated 2008).

The subject of one data set is NB4 cell line. The data set is described as follows: Cytotoxicity of Ara-C, MTT staining of viable cells. The settings on record: 0 to 1 mM, 72 hours. It is filed as cell-based. How it is done:
The cytotoxicity of cytosine-β-D-arabinoside (Ara-C) against CEM, HL60 and NB4 cell lines was examined. Cells were seeded in 96 well plates at 1.5×10^4 cells/well in RPMI1640, 10% FBS, 1 mM HEPES or α-MEM, 10% FBS for HL60 and NB4 or CEM, respectively, with varying concentrations of Ara-C (0 to 1 mM). Cytotoxicity was assessed after 72 hours by staining the viable cells with MTT.

For another data set, the system named is E3 target cells. The settings on record: cited from earlier work.
For data set [1] the following is noted: anti-CD19 antibody immunoconjugate vs free Ida; read-out: activities; cited from earlier work.
Data set [2] has as its system antigen-positive E3 cell line. To be noted: cited from earlier work.
Data set [3] has as its system hematological tumor cells. The data set is described as follows: Nucleophosmin vaccination before injection of hematological tumor cells. It is filed as in vivo. The settings on record: mice vaccinated prior to injection of tumor cells vs not vaccinated.

pIC50: −log10 of the molar value.

For `Nc1ccn([C@@H]2O[C@H](CO)[C@@H](O)[C@@H]2O)c(=O)n1` [Ara-C, cytosine-β-D-arabinoside], the “cytotoxicity against NB4 (FIG. 14)” value in the data set with NB4 cell line is on record as “resistance”. On to `CC(=O)[C@]1(O)Cc2c(O)c3c(c(O)c2[C@@H](O[C@H]2C[C@H](N)[C@H](O)[C@H](C)O2)C1)C(=O)c1ccccc1C3=O` [Ida, Idarubicin], for which the pIC50 is 6.92 with E3 target cells and 7.92 in data set [1]. As for `O=c1[nH]c(=O)n([C@H]2C[C@H](O)[C@@H](CO)O2)cc1F` [FUDR, 5-fluoro-2′-deoxyuridine], in data set [2], the pIC50 is 9.40.

Take “nucleophosmin: purified full length murine nucleophosmin protein used as vaccine antigen, optionally with adjuvant”: the tumor size entry in data set [3] is listed as “smaller”.
